{"source": "patent US6673827B1", "about": "“Methods of treating fungal infections with inhibitors of NAD synthetase enzyme” (priority 1999, dated 2004)", "key": {"[1]": {"target": "T1, NAD synthetase (recombinant protein from B. subtilis; purified) (Bacillus subtilis, UniProt P08164)", "T1 construct": "made in house", "T1 sequence (P08164 whole entry)": "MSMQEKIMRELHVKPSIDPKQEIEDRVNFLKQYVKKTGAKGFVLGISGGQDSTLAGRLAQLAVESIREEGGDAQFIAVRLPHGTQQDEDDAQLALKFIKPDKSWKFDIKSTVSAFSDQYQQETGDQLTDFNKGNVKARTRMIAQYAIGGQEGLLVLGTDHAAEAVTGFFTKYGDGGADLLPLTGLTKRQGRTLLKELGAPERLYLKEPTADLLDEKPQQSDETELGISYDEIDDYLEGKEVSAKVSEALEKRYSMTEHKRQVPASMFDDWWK", "assay": "NAD synthetase enzyme inhibition assay (coupled enzymatic assay, HTS)", "format": "biochemical"}, "[2]": {"system": "Candida albicans KJP-000531594", "assay": "In vitro study of inhibition of growth and lethality against yeast (MIC/MLC susceptibility test), isolate C", "format": "cell-based", "settings": "Candida albicans, Candida albicans, 1st pair of lines"}, "[3]": {"system": "Candida tropicalis ATCC 750", "assay": "In vitro study of inhibition of growth and lethality against yeast (MIC/MLC susceptibility test), isolate A", "format": "cell-based", "settings": "Candida tropicalis, 2nd pair of lines, isolate assigned by line order"}, "[4]": {"system": "Candida albicans (ATCC 10231)", "assay": "Minimum Inhibitory Concentration (MIC) against yeast, broth dilution", "format": "cell-based", "settings": "Candida albicans, ATCC10231; 37° C., 20 hours, mean of duplicate; read-out: MIC Candida albicans (ATCC 10231)"}, "[5]": {"system": "Torulopsis glabrata JHC-BC9951635", "assay": "In vitro study of inhibition of growth and lethality against yeast (MIC/MLC susceptibility test), isolate E", "format": "cell-based", "settings": "Torulopsis glabrata, 2nd pair of lines, isolate assigned by line order"}, "[6]": {"system": "Cryptococcus neoformans DLB-1027594CNC", "assay": "In vitro study of inhibition of growth and lethality against yeast (MIC/MLC susceptibility test), isolate G", "format": "cell-based", "settings": "Cryptococcus neoformans, 1st pair of lines, isolate assigned by line order"}, "[7]": {"system": "Candida tropicalis (ATCC 28707-amphotericin B-resistant)", "assay": "Minimum Inhibitory Concentration (MIC) against yeast, broth dilution", "format": "cell-based", "settings": "Candida tropicalis, ATCC28707, 37° C., 20 hours, mean of duplicate"}, "[8]": {"assay": "In vivo toxicity: intraperitoneal (IP) dosage in mice resulting in 50% lethality (LD50)", "settings": "mouse, in vivo; male CD-1 mice, single IP dose, observed 14 days"}, "[9]": {"system": "Cryptococcus neoformans SLP-BC0012854", "assay": "In vitro study of inhibition of growth and lethality against yeast (MIC/MLC susceptibility test), isolate H", "format": "cell-based", "settings": "Cryptococcus neoformans, 2nd pair of lines, isolate assigned by line order"}, "[10]": {"system": "Torulopsis glabrata ERH-BC9938274", "assay": "In vitro study of inhibition of growth and lethality against yeast (MIC/MLC susceptibility test), isolate F", "format": "cell-based", "settings": "Nakaseomyces glabratus, Torulopsis glabrata, 1st pair of lines, isolate assigned by line order"}, "[11]": {"system": "Candida albicans LH-000664533", "assay": "In vitro study of inhibition of growth and lethality against yeast (MIC/MLC susceptibility test), isolate D", "format": "cell-based", "settings": "Candida albicans, Candida albicans, 2nd pair of lines, isolate assigned by line order"}, "[12]": {"system": "Candida tropicalis (ATCC 750)", "assay": "Minimum Inhibitory Concentration (MIC) against yeast, broth dilution", "format": "cell-based", "settings": "Candida tropicalis, ATCC750; 37° C., 20 hours, mean of duplicate"}, "[13]": {"system": "Candida tropicalis ATCC 28707", "assay": "In vitro study of inhibition of growth and lethality against yeast (MIC/MLC susceptibility test), isolate B", "format": "cell-based", "settings": "Candida tropicalis, 1st pair of lines, isolate assigned by line order"}}, "note": "Read-outs that look alike come from different tables or passages of the source."}
{"smiles": "COC(=O)c1cc2cc(OCc3ccccc3)ccc2n1CCCCCCCOC(=O)Cc1ccc([N+](C)(C)C)cc1.[I-]", "note": "[Compound 988]", "values": [{"measurement": "IC50", "setting": "[1]", "result": 10, "unit": "µM"}, {"measurement": "IC50", "setting": "[1]; IC50 (μg/mL) for Inhibit. of NAD Synthetase, table of structures used in the yeast assay (Example 4)", "result": 14.3, "unit": "µM"}, {"measurement": "MIC", "setting": "[2]; KJP000531594, 24 h, read at 24 hr, isolate not given, assigned by line order and MLC of Table 4B, read-out: Minimum Inhibitory Conc. (MIC), 24 hr.", "result": 1, "unit": "µg/mL"}, {"measurement": "MIC", "setting": "[2]; KJP000531594, 48 h, read at 48 hr, isolate assigned by line order, read-out: Minimum Inhibitory Conc. (MIC), 48 hr.", "result": 1, "unit": "µg/mL"}, {"measurement": "MFC", "setting": "[2]; KJP000531594, isolate assigned by line order, read-out: Minimum Lethal Conc. (MLC)", "result": 1, "unit": "µg/mL"}, {"measurement": "MFC", "setting": "[3]; ATCC750, read-out: Minimum Lethal Conc. (MLC)", "result": 1, "unit": "µg/mL"}, {"measurement": "MIC", "setting": "[3]; ATCC750, 24 h, read at 24 hr, read-out: Minimum Inhibitory Conc. (MIC), 24 hr.", "result": 1, "unit": "µg/mL"}, {"measurement": "MIC", "setting": "[3]; ATCC750, 48 h, read at 48 hr, read-out: Minimum Inhibitory Conc. (MIC), 48 hr.", "result": 1, "unit": "µg/mL"}, {"measurement": "MIC", "setting": "[4]", "result": 0.1, "unit": "µg/mL"}, {"measurement": "MIC", "setting": "[5]; Nakaseomyces glabratus, JHCBC9951635, 24 h, read at 24 hr, read-out: Minimum Inhibitory Conc. (MIC), 24 hr.", "result": 1, "unit": "µg/mL"}, {"measurement": "MIC", "setting": "[5]; Nakaseomyces glabratus, JHCBC9951635, 48 h, read at 48 hr, read-out: Minimum Inhibitory Conc. (MIC), 48 hr.", "result": 2, "unit": "µg/mL"}, {"measurement": "MFC", "setting": "[5]; Nakaseomyces glabratus, JHCBC9951635, read-out: Minimum Lethal Conc. (MLC)", "result": 2, "unit": "µg/mL"}, {"measurement": "Minimum Inhibitory Conc. (MIC), 24 hr.", "setting": "[5]; read at 24 hr", "result": 2, "unit": "µg/mL"}, {"measurement": "Minimum Inhibitory Conc. (MIC), 72 hr.", "setting": "[6]; read at 72 hr", "result": 2, "unit": "µg/mL"}, {"measurement": "MIC", "setting": "[6]; DLB1027594CNC, 48 h, read at 48 hr, read-out: Minimum Inhibitory Conc. (MIC), 48 hr.", "result": 1, "unit": "µg/mL"}, {"measurement": "MIC", "setting": "[6]; DLB1027594CNC, 72 h, read at 72 hr, read-out: Minimum Inhibitory Conc. (MIC), 72 hr.", "result": 1, "unit": "µg/mL"}, {"measurement": "MFC", "setting": "[6]; DLB1027594CNC, read-out: Minimum Lethal Conc. (MLC)", "result": 4, "unit": "µg/mL"}, {"measurement": "MIC", "setting": "[7]", "result": 0.15, "unit": "µg/mL"}, {"measurement": "LD50 at 14 days", "setting": "[8]", "result": 135, "unit": "mg/kg"}, {"measurement": "Minimum Inhibitory Conc. (MIC), 72 hr.", "setting": "[9]; read at 72 hr", "result": 2, "unit": "µg/mL"}, {"measurement": "MIC", "setting": "[9]; SLPBC0012854, 48 h, read at 48 hr, read-out: Minimum Inhibitory Conc. (MIC), 48 hr.", "result": 1, "unit": "µg/mL"}, {"measurement": "MIC", "setting": "[9]; SLPBC0012854, 72 h, read at 72 hr, read-out: Minimum Inhibitory Conc. (MIC), 72 hr.", "result": 1, "unit": "µg/mL"}, {"measurement": "MFC", "setting": "[9]; SLPBC0012854, read-out: Minimum Lethal Conc. (MLC)", "result": 4, "unit": "µg/mL"}, {"measurement": "MIC", "setting": "[10]; ERHBC9938274, 24 h, read at 24 hr, read-out: Minimum Inhibitory Conc. (MIC), 24 hr.", "result": 2, "unit": "µg/mL"}, {"measurement": "MIC", "setting": "[10]; ERHBC9938274, 48 h, read at 48 hr, read-out: Minimum Inhibitory Conc. (MIC), 48 hr.", "result": 2, "unit": "µg/mL"}, {"measurement": "MFC", "setting": "[10]; ERHBC9938274, read-out: Minimum Lethal Conc. (MLC)", "result": 2, "unit": "µg/mL"}, {"measurement": "MIC", "setting": "[11]; LH000664533, 24 h, read at 24 hr, read-out: Minimum Inhibitory Conc. (MIC), 24 hr.", "result": 1, "unit": "µg/mL"}, {"measurement": "MIC", "setting": "[11]; LH000664533, 48 h, read at 48 hr, read-out: Minimum Inhibitory Conc. (MIC), 48 hr.", "result": 2, "unit": "µg/mL"}, {"measurement": "MFC", "setting": "[11]; LH000664533, read-out: Minimum Lethal Conc. (MLC)", "result": 2, "unit": "µg/mL"}, {"measurement": "MIC", "setting": "[12]", "result": 0.024, "unit": "µg/mL"}, {"measurement": "MFC", "setting": "[13]; ATCC28707, read-out: Minimum Lethal Conc. (MLC)", "result": 1, "unit": "µg/mL"}, {"measurement": "Minimum Inhibitory Conc. (MIC), 24 hr.", "setting": "[13]; read at 24 hr", "result": 1, "unit": "µg/mL"}, {"measurement": "Minimum Inhibitory Conc. (MIC), 48 hr.", "setting": "[13]; read at 48 hr", "result": 1, "unit": "µg/mL"}, {"measurement": "MIC", "setting": "[13]; ATCC28707, 24 h, read at 24 hr, read-out: Minimum Inhibitory Conc. (MIC), 24 hr.", "result": 0.5, "unit": "µg/mL"}, {"measurement": "MIC", "setting": "[13]; ATCC28707, 48 h, read at 48 hr, read-out: Minimum Inhibitory Conc. (MIC), 48 hr.", "result": 0.5, "unit": "µg/mL"}]}
